In ChEMBL document CHEMBL6078688, “Discovery of Novel MyD88 Inhibitor A5S to Alleviate Acute Lung Injury with Favorable Drug-like Properties” (J Med Chem, 2024):
Active and inactive are the calls of the source. No cut-off for these calls is given here.

Tests used:
[1] = Half life in Sprague-Dawley rat at 20 mg/kg,po administration measured upto 24 hrs by LC-MS/MS analysis; format: ADME, organism-based; conditions: in vivo
[2] = tested on: Mus musculus; assay: Antiinflammatory activity against LPS induced acute lung injury C57BL/6 mouse model assessed as reduction in total protein concentration in BALF at 20 mg/kg,po administrated with compound for 30 mins followed by LPS treatment and measured after 6 hrs; format: functional, organism-based; conditions: time 6.5 hrs
[3] = Drug concentration in Sprague-Dawley rat lung at 20 mg/kg,po administration measured upto 8 hrs by LC-MS/MS analysis; format: ADME, organism-based; conditions: in vivo
[4] = Tmax in Sprague-Dawley rat at 20 mg/kg,po administration measured upto 24 hrs by LC-MS/MS analysis; format: ADME, organism-based; conditions: in vivo
[5] = target: T1, Myeloid differentiation primary response protein MyD88 (Homo sapiens, UniProt Q99836); assay: Inhibition of FLAG tagged and HA tagged MYD88 (unknown origin) expressed in LPS induced HEK293T cells at 20 uM incubated for 1 hr by coimmunoprecipitation analysis; format: cell-based
[6] = tested on: J774.A1; assay: Inhibition of NF-kappaB signalling pathway in LPS-induced mouse J774.A1 cells assessed as upregulation of IkappaB-alpha expression by Western blotting analysis; format: cell-based
[7] = AUC (0 to t) in Sprague-Dawley rat at 20 mg/kg,po administration measured upto 24 hrs by LC-MS/MS analysis; format: ADME, organism-based; conditions: in vivo
[8] = Cmax in Sprague-Dawley rat at 20 mg/kg,po administration measured upto 24 hrs by LC-MS/MS analysis; format: ADME, organism-based; conditions: in vivo
[9] = tested on: Mus musculus; assay: Antiinflammatory activity in cecal ligation and puncture induced sepsis C57BL/6 mouse model assessed as reduction in TNF-alpha level in serum at 20 mg/kg,po administrated with compound for 6 hrs followed by CLP induction and measured after 12 hrs by ELISA; format: functional, organism-based; conditions: time 18.0 hrs
[10] = tested on: Mus musculus; assay: Antiinflammatory activity in cecal ligation and puncture induced sepsis C57BL/6 mouse model assessed as reduction in inflammatory infiltration in lung at 20 mg/kg,po administrated with compound for 6 hrs followed by CLP induction and measured after 12 hrs by H and E staining based analysis; format: functional, organism-based; conditions: time 18.0 hrs
[11] = target: T1, Myeloid differentiation primary response protein MyD88; assay: Binding affinity to CM5 sensor chip immobilized human MyD88 TIR domain assessed as dissociation constant by SPR analysis
[12] = tested on: Mus musculus; assay: Antiinflammatory activity in cecal ligation and puncture induced sepsis C57BL/6 mouse model assessed as reduction in IL-6 level in serum at 20 mg/kg,po administrated with compound for 6 hrs followed by CLP induction and measured after 12 hrs by ELISA; format: functional, organism-based; conditions: time 18.0 hrs
[13] = Half life in Sprague-Dawley rat at 1 mg/kg,iv administration measured upto 24 hrs by LC-MS/MS analysis; format: ADME, organism-based; conditions: in vivo
[14] = Drug concentration in Sprague-Dawley rat serum at 1 mg/kg,iv administration measured upto 24 hrs by LC-MS/MS analysis; format: ADME, organism-based; conditions: read-out: Ct
[15] = Acute toxicity in C57BL/6 mouse assessed as pathological change in liver at 500 mg/kg,po administration measured upto 11 days by hematoxylin and eosin staining based assay; format: organism-based; conditions: in vivo, 264 h, time < 11 day
[16] = Acute toxicity in C57BL/6 mouse assessed as weight loss at 500 mg/kg,po administration measured after 3 days; format: organism-based; conditions: in vivo, 72 h, time 3 day
[17] = Acute toxicity in C57BL/6 mouse assessed as pathological change in heart at 500 mg/kg,po administration measured upto 11 days by hematoxylin and eosin staining based assay; format: organism-based; conditions: in vivo, 264 h, time < 11 day
[18] = tested on: Mus musculus; assay: Antiinflammatory activity in cecal ligation and puncture induced sepsis C57BL/6 mouse model assessed as reduction in IL-6 level in BALF at 20 mg/kg,po administrated with compound for 6 hrs followed by CLP induction and measured after 12 hrs by ELISA; format: functional, organism-based; conditions: time 18.0 hrs
[19] = tested on: Mus musculus; assay: Antiinflammatory activity in cecal ligation and puncture induced sepsis C57BL/6 mouse model assessed as reduction in pulmonary congestion in lung at 20 mg/kg,po administrated with compound for 6 hrs followed by CLP induction and measured after 12 hrs by H and E staining based analysis; format: functional, organism-based; conditions: time 18.0 hrs
[20] = tested on: Mus musculus; assay: Antiinflammatory activity against LPS induced acute lung injury C57BL/6 mouse model assessed as reduction in of leukocytes in alveolar region at 20 mg/kg,po administrated with compound for 30 mins followed by LPS treatment and measured after 6 hrs by immunohistochemical staining based analysis; format: functional, organism-based
[21] = tested on: J774.A1; assay: Anti-inflammatory activity in LPS-induced mouse J774.A1 cells assessed as inhibition of TNF-alpha production by ELISA; format: functional, cell-based
[22] = Acute toxicity in C57BL/6 mouse assessed as pathological change in lung at 500 mg/kg,po administration measured upto 11 days by hematoxylin and eosin staining based assay; format: organism-based; conditions: in vivo, 264 h, time < 11 day
[23] = Stability of compound in simulated gastric fluid measured upto 12 hrs; format: physicochemical; conditions: simulated gi fluid
[24] = AUC (0 to t) in Sprague-Dawley rat at 1 mg/kg,iv administration measured upto 24 hrs by LC-MS/MS analysis; format: ADME, organism-based; conditions: in vivo
[25] = Stability of compound in simulated intestinal fluid measured upto 12 hrs; format: physicochemical; conditions: simulated gi fluid
[26] = tested on: Mus musculus; assay: Antiinflammatory activity against LPS induced acute lung injury C57BL/6 mouse model assessed as reduction in pulmonary edema by measuring reduction of lung wet to dry ratio at 20 mg/kg,po administrated measured after 48 hrs; format: functional, organism-based
[27] = Stability of compound in enzyme free simulated gastric fluid measured upto 12 hrs; format: physicochemical; conditions: simulated gi fluid
[28] = tested on: J774.A1; assay: Inhibition of MAPK signalling pathway in LPS stimulated mouse J774.A1 cells assessed as downregulation of IRAK4 phosphorylation by Western blotting analysis; format: cell-based
[29] = Stability of compound in enzyme free simulated intestinal fluid measured upto 12 hrs; format: physicochemical; conditions: simulated gi fluid
[30] = tested on: Mus musculus; assay: Antiinflammatory activity in cecal ligation and puncture induced sepsis C57BL/6 mouse model assessed as reduction in cell effusion in BALF at 20 mg/kg,po administrated with compound for 6 hrs followed by CLP induction and measured after 12 hrs; format: functional, organism-based; conditions: time 18.0 hrs
[31] = tested on: Mus musculus; assay: Antiinflammatory activity against LPS induced acute lung injury C57BL/6 mouse model assessed as reduction in histopathological change in lung at 20 mg/kg,po administrated with compound for 30 mins followed by LPS treatment and measured after 6 hrs by H and E staining based analysis; format: functional, organism-based; conditions: time 6.5 hrs
[32] = target: T1, Myeloid differentiation primary response protein MyD88; assay: Binding affinity to CM5 sensor chip immobilized human MyD88 DD domain assessed as dissociation constant by SPR analysis
[33] = tested on: Mus musculus; assay: Antiinflammatory activity in cecal ligation and puncture induced sepsis C57BL/6 mouse model assessed as reduction in neutrophil infiltration in lung at 20 mg/kg,po administrated with compound for 6 hrs followed by CLP induction and measured after 12 hrs by immunohistochemical staining based analysis; format: functional, organism-based; conditions: time 18.0 hrs
[34] = tested on: Mus musculus; assay: Antiinflammatory activity against LPS induced acute lung injury C57BL/6 mouse model assessed as reduction in IL-6 level in serum at 20 mg/kg,po administrated with compound for 30 mins followed by LPS treatment and measured after 6 hrs by ELISA; format: functional, organism-based; conditions: time 6.5 hrs
[35] = Cmax in Sprague-Dawley rat at 1 mg/kg,iv administration measured upto 24 hrs by LC-MS/MS analysis; format: ADME, organism-based; conditions: in vivo
[36] = tested on: Mus musculus; assay: Antiinflammatory activity in cecal ligation and puncture induced sepsis C57BL/6 mouse model assessed as reduction in tissue destruction of lung at 20 mg/kg,po administrated with compound for 6 hrs followed by CLP induction and measured after 12 hrs by H and E staining based analysis; format: functional, organism-based; conditions: time 18.0 hrs

T1 sequence (Q99836 whole entry): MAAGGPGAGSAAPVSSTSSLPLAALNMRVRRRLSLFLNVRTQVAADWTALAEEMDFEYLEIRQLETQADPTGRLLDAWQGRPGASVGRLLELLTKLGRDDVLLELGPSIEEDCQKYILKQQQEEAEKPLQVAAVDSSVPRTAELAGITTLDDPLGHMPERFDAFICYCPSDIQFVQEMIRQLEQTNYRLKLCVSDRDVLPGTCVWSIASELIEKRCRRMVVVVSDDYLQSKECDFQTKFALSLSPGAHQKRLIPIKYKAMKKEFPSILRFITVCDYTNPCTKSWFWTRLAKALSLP

Compound: O[C@H](COc1ccc(Br)cc1)CN1CCN(Cc2cc3ccccc3[nH]2)CC1
- half-life [1]: 4.44 h
- Activity [2]: Active
- Drug uptake [3]: Active
- Tmax [4]: 3.67 h
- inhibition [5]: Active
- inhibition [6]: Active
- AUC(0-t) at 24 h [7]: 2.86 µg·h/mL
- Cmax [8]: 0.32 µg/mL
- Activity [9]: Active
- Activity [10]: Active
- Kd [11]: 15 µM
- Activity [12]: Active
- half-life [13]: 1.39 h
- concentration at 24 h [14]: 1.08 µg/mL
- Activity [15]: Non-toxic
- Activity [16]: Toxic
- Activity [17]: Non-toxic
- Activity [18]: Active
- Activity [19]: Active
- Activity [20]: Active
- IC50 [21]: 3.28 µM
- Activity [22]: Non-toxic
- Stability [23]: Stable
- AUC(0-t) at 24 h [24]: 0.691 µg·h/mL
- Stability [25]: Stable
- Activity [26]: Active
- Stability [27]: Stable
- inhibition [28]: Active
- Stability [29]: Stable
- Activity [30]: Active
- Activity [31]: Active
- Activity [32]: inactive
- Activity [33]: Active
- Activity [34]: Active
- Cmax [35]: 1.08 µg/mL
- Activity [36]: Active
